Experimental data taken from US20060122153A1, “Antineoplastic ether lipid compounds with modifications at the sn-2 carbon” (priority 2003, published 2006).

Tests used:
Type in all cases: cell-based, human
Parameters in all cases: key: = means equivalent activity; + means that it appears to be significantly better (i.e., by ˜2x); < means it appears to be less active than ET18OCH3 (˜2x); a combination like =/+ or </+ means that activity is dependent upon the isomer; a combination like =/+ or </+ means that activity is dependent upon the isomer
[1] = tested on: NCI-H23; experiment: NCI growth inhibition screen, non-small cell lung panel; details: NCI-H23, NS cell lung; from GI50s
Description: (§1) Candidates deemed suitable for in vivo testing were then synthesized in large scale quantities and some of this material was sent to the NCI's Developmental Therapeutics Program for a battery of growth inhibitory studies against various human tumor cell lines (60 cell lines, 9 different panels). The remainder of the material was used to assess in vivo efficacy using murine tumor models. Additionally, studies were conducted on the lead candidates to discern mechanism of action with particular emphasis on these agents apoptotic ability as measured by caspase 3 activity. The details (materials and methods) for these various assays are described further in the following discussion.
(§2) Ten compounds were also sent to NCI's Drug Discovery Program for screening against numerous human tumor cell lines (9 panels total: renal ovarian, colon, CNS, non-small cell lung, leukemia, breast, melanoma, and prostate). The data are shown in FIGS. 2a-i which also include data regarding D- and L-ET-18-OCH3 (listed as L-EL and D-EL in the figures). Upon examining the data, one is struck by how 1R and 1a′S standout in comparison to the other compounds, especially for the renal, ovarian, colon, and CNS panels.

[2] = tested on: EKVX; experiment: as above; details: NS cell lung, from GI50s
Description: as §1, §2

[3] = tested on: NCI-H332M; experiment: as above; details: NS cell lung, from GI50s
Description: as §1, §2

[4] = tested on: SK-MEL-5; experiment: NCI growth inhibition screen, melanoma panel; details: SK-MEL-5, Melanoma; from GI50s
Description: as §1, §2

[5] = tested on: UACC62; experiment: NCI growth inhibition screen, melanoma panel; details: from GI50s
Description: as §1, §2

[6] = tested on: M14; experiment: NCI growth inhibition screen, melanoma panel; details: from GI50s
Description: as §1, §2

[7] = tested on: SK-MEL-28; experiment: NCI growth inhibition screen, melanoma panel; details: SK-MEL-28, Melanoma; from GI50s
Description: as §1, §2

[8] = tested on: UACC-257; experiment: NCI growth inhibition screen, melanoma panel; details: UACC-257, Melanoma; from GI50s
Description: as §1, §2

[9] = tested on: LOX IMVI; experiment: NCI growth inhibition screen, melanoma panel; details: from GI50s
Description: as §1, §2

CCCCCCCCCCCCCCCCCCOC[C@@H](COP(=O)([O-])OCC[N+](C)(C)C)OS(C)(=O)=O [1a′S]
Performance as compared to ET-18-O—CH3 [1]: 0
Performance as compared to ET-18-O—CH3 [2]: 0
Performance as compared to ET-18-O—CH3 [3]: 0
Performance as compared to ET-18-O—CH3 [4]: 0
Performance as compared to ET-18-O—CH3 [5]: 64
Performance as compared to ET-18-O—CH3 [6]: 0
Performance as compared to ET-18-O—CH3 [7]: </=
Performance as compared to ET-18-O—CH3 [8]: 0
Performance as compared to ET-18-O—CH3 [9]: 0

CCCCCCCCCCCCCCCCCCOCC(COP(=O)([O-])OCC[N+](C)(C)C)OS(C)(=O)=O (stereo not drawn) [Compound 1aR]
Performance as compared to ET-18-O—CH3 [1]: =
Performance as compared to ET-18-O—CH3 [2]: =
Performance as compared to ET-18-O—CH3 [3]: =
Performance as compared to ET-18-O—CH3 [4]: =
Performance as compared to ET-18-O—CH3 [5]: +
Performance as compared to ET-18-O—CH3 [6]: =
Performance as compared to ET-18-O—CH3 [7]: =/+
Performance as compared to ET-18-O—CH3 [8]: =
Performance as compared to ET-18-O—CH3 [9]: =
